Earlier results in patent US11406678B2, “Simmondsin formulation” (priority 2016, dated 2022).

Details: rats, 25 mg or 50 mg simmondsin per kg body weight

## CO[C@H]1[C@@H](OC)C[C@@H](O[C@@H]2O[C@H](CO)[C@@H](O)[C@H](O)[C@H]2O)/C(=C\C#N)[C@@H]1O [simmondsin]
  weight loss: no effect on the weight loss
